Values after ≈ are worked out from the molar mass of the structure shown.
Legend:
Type in all cases: functional
Klebsiella pneumoniae [1] = assay: Antimicrobial activity against multidrug resistant Klebsiella pneumoniae isolate 14 by broth dilution method
Klebsiella aerogenes [2] = assay: Antimicrobial activity against multidrug resistant Enterobacter aerogenes isolate 27 by broth dilution method
Klebsiella aerogenes [3] = assay: Antimicrobial activity against multidrug resistant Enterobacter aerogenes isolate 18 by broth dilution method in presence of 26.3 mg/L efflux pump inhibitor phenylalanine-arginine-beta-naphthylamide
Klebsiella aerogenes [4] = assay: Antimicrobial activity against multidrug resistant Enterobacter aerogenes isolate 17 by broth dilution method in presence of 26.3 mg/L efflux pump inhibitor phenylalanine-arginine-beta-naphthylamide
Klebsiella aerogenes [5] = assay: Antimicrobial activity against multidrug resistant Enterobacter aerogenes isolate 10 by broth dilution method in presence of 26.3 mg/L efflux pump inhibitor phenylalanine-arginine-beta-naphthylamide
Klebsiella aerogenes [6] = assay: Antimicrobial activity against multidrug resistant Enterobacter aerogenes isolate 19 by broth dilution method
Klebsiella pneumoniae [7] = assay: Antimicrobial activity against multidrug resistant Klebsiella pneumoniae ATCC 11296 by broth dilution method in presence of 26.3 mg/L efflux pump inhibitor phenylalanine-arginine-beta-naphthylamide
Klebsiella aerogenes [8] = assay: Antimicrobial activity against multidrug resistant Enterobacter aerogenes isolate 21 by broth dilution method in presence of 26.3 mg/L efflux pump inhibitor phenylalanine-arginine-beta-naphthylamide
Klebsiella pneumoniae [9] = assay: Antimicrobial activity against multidrug resistant Klebsiella pneumoniae isolate 4 by broth dilution method in presence of 26.3 mg/L efflux pump inhibitor phenylalanine-arginine-beta-naphthylamide
Klebsiella aerogenes [10] = assay: Antimicrobial activity against multidrug resistant Enterobacter aerogenes isolate 25 by broth dilution method
Klebsiella pneumoniae [11] = assay: Antimicrobial activity against multidrug resistant Klebsiella pneumoniae isolate 12 by broth dilution method
Klebsiella aerogenes [12] = assay: Antimicrobial activity against multidrug resistant Enterobacter aerogenes isolate 26 by broth dilution method in presence of 26.3 mg/L efflux pump inhibitor phenylalanine-arginine-beta-naphthylamide
Klebsiella pneumoniae [13] = assay: Antimicrobial activity against multidrug resistant Klebsiella pneumoniae isolate 3 by broth dilution method
Klebsiella pneumoniae [14] = assay: Antimicrobial activity against multidrug resistant Klebsiella pneumoniae isolate 15 by broth dilution method
Klebsiella aerogenes [15] = assay: Antimicrobial activity against multidrug resistant Enterobacter aerogenes isolate 2 by broth dilution method in presence of 26.3 mg/L efflux pump inhibitor phenylalanine-arginine-beta-naphthylamide
Klebsiella aerogenes [16] = assay: Antimicrobial activity against multidrug resistant Enterobacter aerogenes isolate 24 by broth dilution method in presence of 26.3 mg/L efflux pump inhibitor phenylalanine-arginine-beta-naphthylamide
Klebsiella pneumoniae [17] = assay: Antimicrobial activity against multidrug resistant Klebsiella pneumoniae isolate 10 by broth dilution method in presence of 26.3 mg/L efflux pump inhibitor phenylalanine-arginine-beta-naphthylamide
Klebsiella aerogenes [18] = assay: Antimicrobial activity against multidrug resistant Enterobacter aerogenes ATCC 15038 by broth dilution method
Klebsiella aerogenes [19] = assay: Antimicrobial activity against multidrug resistant Enterobacter aerogenes isolate 3 by broth dilution method in presence of 26.3 mg/L efflux pump inhibitor phenylalanine-arginine-beta-naphthylamide
Klebsiella pneumoniae [20] = assay: Antimicrobial activity against multidrug resistant Klebsiella pneumoniae isolate 11 by broth dilution method
Klebsiella pneumoniae [21] = assay: Antimicrobial activity against multidrug resistant Klebsiella pneumoniae ATCC 11296 by broth dilution method
Klebsiella aerogenes [22] = assay: Antimicrobial activity against multidrug resistant Enterobacter aerogenes isolate 8 by broth dilution method
Klebsiella aerogenes [23] = assay: Antimicrobial activity against multidrug resistant Enterobacter aerogenes isolate 4 by broth dilution method in presence of 26.3 mg/L efflux pump inhibitor phenylalanine-arginine-beta-naphthylamide
Klebsiella aerogenes [24] = assay: Antimicrobial activity against multidrug resistant Enterobacter aerogenes isolate 5 by broth dilution method
Klebsiella aerogenes [25] = assay: Antimicrobial activity against multidrug resistant Enterobacter aerogenes isolate 25 by broth dilution method in presence of 26.3 mg/L efflux pump inhibitor phenylalanine-arginine-beta-naphthylamide
Klebsiella pneumoniae [26] = assay: Antimicrobial activity against multidrug resistant Klebsiella pneumoniae isolate 7 by broth dilution method
Klebsiella pneumoniae [27] = assay: Antimicrobial activity against multidrug resistant Klebsiella pneumoniae isolate 2 by broth dilution method
Klebsiella aerogenes [28] = assay: Antimicrobial activity against multidrug resistant Enterobacter aerogenes isolate 4 by broth dilution method
Klebsiella pneumoniae [29] = assay: Antimicrobial activity against multidrug resistant Klebsiella pneumoniae isolate 16 by broth dilution method
Klebsiella pneumoniae [30] = assay: Antimicrobial activity against multidrug resistant Klebsiella pneumoniae isolate 5 by broth dilution method in presence of 26.3 mg/L efflux pump inhibitor phenylalanine-arginine-beta-naphthylamide
Klebsiella aerogenes [31] = assay: Antimicrobial activity against multidrug resistant Enterobacter aerogenes isolate 8 by broth dilution method in presence of 26.3 mg/L efflux pump inhibitor phenylalanine-arginine-beta-naphthylamide
Klebsiella aerogenes [32] = assay: Antimicrobial activity against multidrug resistant Enterobacter aerogenes isolate 15 by broth dilution method in presence of 26.3 mg/L efflux pump inhibitor phenylalanine-arginine-beta-naphthylamide
Klebsiella pneumoniae [33] = assay: Antimicrobial activity against multidrug resistant Klebsiella pneumoniae isolate 2 by broth dilution method in presence of 26.3 mg/L efflux pump inhibitor phenylalanine-arginine-beta-naphthylamide
Klebsiella aerogenes [34] = assay: Antimicrobial activity against multidrug resistant Enterobacter aerogenes isolate 22 by broth dilution method in presence of 26.3 mg/L efflux pump inhibitor phenylalanine-arginine-beta-naphthylamide
Klebsiella pneumoniae [35] = assay: Antimicrobial activity against multidrug resistant Klebsiella pneumoniae isolate 13 by broth dilution method
Klebsiella aerogenes [36] = assay: Antimicrobial activity against multidrug resistant Enterobacter aerogenes isolate 11 by broth dilution method in presence of 26.3 mg/L efflux pump inhibitor phenylalanine-arginine-beta-naphthylamide
Klebsiella pneumoniae [37] = assay: Antimicrobial activity against multidrug resistant Klebsiella pneumoniae isolate 13 by broth dilution method in presence of 26.3 mg/L efflux pump inhibitor phenylalanine-arginine-beta-naphthylamide
Klebsiella aerogenes [38] = assay: Antimicrobial activity against multidrug resistant Enterobacter aerogenes isolate 18 by broth dilution method
Klebsiella pneumoniae [39] = assay: Antimicrobial activity against multidrug resistant Klebsiella pneumoniae isolate 15 by broth dilution method in presence of 26.3 mg/L efflux pump inhibitor phenylalanine-arginine-beta-naphthylamide
Klebsiella aerogenes [40] = assay: Antimicrobial activity against multidrug resistant Enterobacter aerogenes isolate 6 by broth dilution method
Klebsiella aerogenes [41] = assay: Antimicrobial activity against multidrug resistant Enterobacter aerogenes isolate 11 by broth dilution method
Klebsiella aerogenes [42] = assay: Antimicrobial activity against multidrug resistant Enterobacter aerogenes isolate 26 by broth dilution method
Klebsiella aerogenes [43] = assay: Antimicrobial activity against multidrug resistant Enterobacter aerogenes isolate 12 by broth dilution method in presence of 26.3 mg/L efflux pump inhibitor phenylalanine-arginine-beta-naphthylamide
Klebsiella aerogenes [44] = assay: Antimicrobial activity against multidrug resistant Enterobacter aerogenes isolate 16 by broth dilution method
Klebsiella pneumoniae [45] = assay: Antimicrobial activity against multidrug resistant Klebsiella pneumoniae isolate 8 by broth dilution method in presence of 26.3 mg/L efflux pump inhibitor phenylalanine-arginine-beta-naphthylamide
Klebsiella aerogenes [46] = assay: Antimicrobial activity against multidrug resistant Enterobacter aerogenes isolate 12 by broth dilution method
Klebsiella aerogenes [47] = assay: Antimicrobial activity against multidrug resistant Enterobacter aerogenes isolate 27 by broth dilution method in presence of 26.3 mg/L efflux pump inhibitor phenylalanine-arginine-beta-naphthylamide
Klebsiella pneumoniae [48] = assay: Antimicrobial activity against multidrug resistant Klebsiella pneumoniae isolate 11 by broth dilution method in presence of 26.3 mg/L efflux pump inhibitor phenylalanine-arginine-beta-naphthylamide
Klebsiella aerogenes [49] = assay: Antimicrobial activity against multidrug resistant Enterobacter aerogenes isolate 20 by broth dilution method in presence of 26.3 mg/L efflux pump inhibitor phenylalanine-arginine-beta-naphthylamide

CN(C)[C@@H]1C(O)=C(C(N)=O)C(=O)[C@@]2(O)C(O)=C3C(=O)c4c(O)cccc4[C@@](C)(O)[C@H]3C[C@@H]12 [TETRACYCLINE]
MIC (Klebsiella pneumoniae [1]): 2 µg/mL (≈ 4.5 µM)
MIC (Klebsiella aerogenes [2]): 128 µg/mL (≈ 288 µM)
MIC (Klebsiella aerogenes [3]): 4 µg/mL
MIC (Klebsiella aerogenes [4]): 8 µg/mL
MIC (Klebsiella aerogenes [5]): 8 µg/mL
MIC (Klebsiella aerogenes [6]): 64 µg/mL (≈ 144 µM)
MIC (Klebsiella pneumoniae [7]): 1 µg/mL
MIC (Klebsiella aerogenes [8]): 8 µg/mL
MIC (Klebsiella pneumoniae [9]): 256 µg/mL
MIC (Klebsiella aerogenes [10]): 64 µg/mL (≈ 144 µM)
MIC (Klebsiella pneumoniae [11]): 2 µg/mL (≈ 4.5 µM)
MIC (Klebsiella aerogenes [12]): 2 µg/mL
MIC (Klebsiella pneumoniae [13]): 4 µg/mL (≈ 9 µM)
MIC (Klebsiella pneumoniae [14]): 2 µg/mL (≈ 4.5 µM)
MIC (Klebsiella aerogenes [15]): 4 µg/mL
MIC (Klebsiella aerogenes [16]): 8 µg/mL
MIC (Klebsiella pneumoniae [17]): 256 µg/mL
MIC (Klebsiella aerogenes [18]): 1 µg/mL (≈ 2.25 µM)
MIC (Klebsiella aerogenes [19]): 8 µg/mL
MIC (Klebsiella pneumoniae [20]): 4 µg/mL (≈ 9 µM)
MIC (Klebsiella pneumoniae [21]): 2 µg/mL (≈ 4.5 µM)
MIC (Klebsiella aerogenes [22]): 64 µg/mL (≈ 144 µM)
MIC (Klebsiella aerogenes [23]): 8 µg/mL
MIC (Klebsiella aerogenes [24]): 128 µg/mL (≈ 288 µM)
MIC (Klebsiella aerogenes [25]): 4 µg/mL
MIC (Klebsiella pneumoniae [26]): 2 µg/mL (≈ 4.5 µM)
MIC (Klebsiella pneumoniae [27]): 64 µg/mL (≈ 144 µM)
MIC (Klebsiella aerogenes [28]): 128 µg/mL (≈ 288 µM)
MIC (Klebsiella pneumoniae [29]): 4 µg/mL (≈ 9 µM)
MIC (Klebsiella pneumoniae [30]): 128 µg/mL
MIC (Klebsiella aerogenes [31]): 2 µg/mL
MIC (Klebsiella aerogenes [32]): 8 µg/mL
MIC (Klebsiella pneumoniae [33]): 2 µg/mL
MIC (Klebsiella aerogenes [34]): 4 µg/mL
MIC (Klebsiella pneumoniae [35]): 4 µg/mL (≈ 9 µM)
MIC (Klebsiella aerogenes [36]): 8 µg/mL
MIC (Klebsiella pneumoniae [37]): 128 µg/mL
MIC (Klebsiella aerogenes [38]): 4 µg/mL (≈ 9 µM)
MIC (Klebsiella pneumoniae [39]): 128 µg/mL
MIC (Klebsiella aerogenes [40]): 4 µg/mL (≈ 9 µM)
MIC (Klebsiella aerogenes [41]): 64 µg/mL (≈ 144 µM)
MIC (Klebsiella aerogenes [42]): 32 µg/mL (≈ 72 µM)
MIC (Klebsiella aerogenes [43]): 16 µg/mL
MIC (Klebsiella aerogenes [44]): 64 µg/mL (≈ 144 µM)
MIC (Klebsiella pneumoniae [45]): 128 µg/mL
MIC (Klebsiella aerogenes [46]): 128 µg/mL (≈ 288 µM)
MIC (Klebsiella aerogenes [47]): 8 µg/mL
MIC (Klebsiella pneumoniae [48]): 4 µg/mL
MIC (Klebsiella aerogenes [49]): 4 µg/mL

O=C(N[C@H](CO)[C@H](O)c1ccc([N+](=O)[O-])cc1)C(Cl)Cl [CHLORAMPHENICOL]
MIC (Klebsiella aerogenes [2]): 1020 µg/mL (≈ 3170 µM)
MIC (Klebsiella aerogenes [3]): 4 µg/mL
MIC (Klebsiella aerogenes [4]): 64 µg/mL
MIC (Klebsiella aerogenes [5]): 128 µg/mL
MIC (Klebsiella aerogenes [6]): 1020 µg/mL (≈ 3170 µM)
MIC (Klebsiella pneumoniae [7]): 2 µg/mL
MIC (Klebsiella aerogenes [8]): 128 µg/mL
MIC (Klebsiella pneumoniae [9]): 2 µg/mL
MIC (Klebsiella aerogenes [10]): 512 µg/mL (≈ 1580 µM)
MIC (Klebsiella pneumoniae [11]): 64 µg/mL (≈ 198 µM)
MIC (Klebsiella aerogenes [12]): 32 µg/mL
MIC (Klebsiella pneumoniae [13]): 4 µg/mL (≈ 12.4 µM)
MIC (Klebsiella pneumoniae [14]): 8 µg/mL (≈ 24.8 µM)
MIC (Klebsiella aerogenes [15]): 64 µg/mL
MIC (Klebsiella aerogenes [16]): 64 µg/mL
MIC (Klebsiella pneumoniae [17]): 2 µg/mL
MIC (Klebsiella aerogenes [18]): 2 µg/mL (≈ 6.19 µM)
MIC (Klebsiella aerogenes [19]): 128 µg/mL
MIC (Klebsiella pneumoniae [20]): 8 µg/mL (≈ 24.8 µM)
MIC (Klebsiella pneumoniae [21]): 4 µg/mL (≈ 12.4 µM)
MIC (Klebsiella aerogenes [22]): 256 µg/mL (≈ 792 µM)
MIC (Klebsiella aerogenes [23]): 128 µg/mL
MIC (Klebsiella aerogenes [24]): > 1020 µg/mL
MIC (Klebsiella aerogenes [25]): 64 µg/mL
MIC (Klebsiella pneumoniae [26]): 32 µg/mL (≈ 99 µM)
MIC (Klebsiella pneumoniae [27]): 256 µg/mL (≈ 792 µM)
MIC (Klebsiella aerogenes [28]): 1020 µg/mL (≈ 3170 µM)
MIC (Klebsiella pneumoniae [30]): 2 µg/mL
MIC (Klebsiella aerogenes [31]): 64 µg/mL
MIC (Klebsiella aerogenes [32]): 64 µg/mL
MIC (Klebsiella pneumoniae [33]): 64 µg/mL
MIC (Klebsiella aerogenes [34]): 128 µg/mL
MIC (Klebsiella pneumoniae [35]): 128 µg/mL (≈ 396 µM)
MIC (Klebsiella aerogenes [36]): 64 µg/mL
MIC (Klebsiella pneumoniae [37]): 4 µg/mL
MIC (Klebsiella aerogenes [38]): 32 µg/mL (≈ 99 µM)
MIC (Klebsiella pneumoniae [39]): 2 µg/mL
MIC (Klebsiella aerogenes [40]): 256 µg/mL (≈ 792 µM)
MIC (Klebsiella aerogenes [41]): 512 µg/mL (≈ 1580 µM)
MIC (Klebsiella aerogenes [42]): 256 µg/mL (≈ 792 µM)
MIC (Klebsiella aerogenes [43]): 128 µg/mL
MIC (Klebsiella aerogenes [44]): 512 µg/mL (≈ 1580 µM)
MIC (Klebsiella pneumoniae [45]): 2 µg/mL
MIC (Klebsiella aerogenes [46]): 1020 µg/mL (≈ 3170 µM)
MIC (Klebsiella aerogenes [47]): 128 µg/mL
MIC (Klebsiella pneumoniae [48]): 4 µg/mL
MIC (Klebsiella aerogenes [49]): 64 µg/mL
